Holding throughout (assay type): cell-based
Experiment [1] relates to Staphylococcus aureus ATCC 6538. The experiment is described as follows: Microbial efficacy, modified AOAC 965.13, serial-dilution plate count.
Experiment [2] deals with Pseudomonas aeruginosa ATCC 15442. Described as above.
Experiment [3] deals with Aspergillus fumigatus ATCC 1098. Nature of the experiment: Fungicidal activity, modified AOAC Method 955.17, spore kill. Conditions: for reduction of the fungal bioburden: solutions equivalent to amounts found in the tablet solution. Here is the method:
This assay had several modifications from the published AOAC Fungicidal Activity of Disinfectants Protocol, Method 955.17. Aspergillus fumigatus ATCC 1098 was grown on Malt Extract Agar (available from Becton Dickinson, Billerica, Mass.) plates, and spores were harvested. Spores were stored in filter-sterilized Millipore water at −20° C. The spore preparation used for this experiment is detailed below. A freezer stock of A. fumigatus was defrosted and diluted to obtain an inoculum suspension for this experiment. […] The following test solutions were prepared using filter-sterilized MILLIPORE water in steam-sterilized 4 L bottles:
Water Control: (filter-sterilized water only), pH 6.28.
OXONE Control: 3.78 g OXONE in 1 gallon (about 3.8 liters) sterile water, buffered to pH 4.43 using 0.98 g NaHCO3 and 5.25 g 10% H2SO4.
Chlorite Control: 0.26 g of sodium chlorite in 1-gallon sterile water buffered to pH 4.55 (1.8 g 10% H2SO4).
Buffer Control: sodium bicarbonate, pH adjusted to 4.4.
Chlorine Dioxide: Anthium Dioxide (stabilized sodium chlorite available from IDI, North Kingston, R1) was acidified with HCl.
CLOROX control: 4.17% (v/v) CLOROX bleach available from Clorox Company, Oakland, Calif. (v/v) in MILLIPORE water by mixing 4.17 ml of Clorox bleach and water up to 100 ml total volume.
Reaction tubes: 5 ml of each test solution was aliquoted into 25×150 mm test culture tubes, capped and labeled according to Table 6. 9 ml of D/E (Dey/Engley) Neutralizing Broth (available from Becton Dickinson, Billerica, Mass.) was added to each of 28 test tubes and the tubes were capped. Butterfield buffer blanks were arranged for dilution of neutralized samples, and Malt Extract Agar plates were numbered for spore enumerations of the diluted, neutralized samples. With a graduated pipette, 0.5 ml of spore inoculum (about […]) was added to the first tube of test solution and gently shaken. After 5- and 15-minute exposures to the respective test solutions, samples were gently shaken and 1 ml samples were removed from each reaction mixture (spore-test solution) using an Eppendorf pipette and placed in 9 ml D/E (Dey/Engley) Neutralizing Broth. The inoculum was further diluted to approximately 10^4 condia/ml. Two more reaction tubes (water and OXONE-chlorite) and four Dey/Engley neutralization tubes were prepared to evaluate the efficacy of the tablet solution versus a final inoculum density of 10^4 condia/ml in the reaction tube. Samples were reacted for 15 minutes only. Dilutions of neutralized samples were prepared. Two 100 μl aliquots of all samples in D/E (Dey/Engley) Neutralizing Broth were plated on Malt Extract Agar and incubated at 25° C. until the appearance of colonies. Plates were counted after colonies appeared, roughly 4 days after incubation. Several dilutions of the inoculum spore suspensions were also plated on Malt Extract Agar to obtain an accurate count of viable spores used as inoculum. The samples were incubated at 25° C. and counted after the appearance of colonies, after about 4 days of incubation.
Buffer control data was taken after 15 minutes. CLOROX control data was taken after 5 minutes of treatment.

For experiment [4], the system named is Salmonella choleraesuis ATCC 10708.
Setting [5] is: 30 sec exposure, Example 11 = 1,008 ppm Oxone + 55.5 ppm Chlorite, controls 1,008 ppm Oxone, 55.5 ppm Chlorite, 23.2 ppm ClO2.
Where [6] appears, read: 30 sec exposure, Example 11 = 1,008 ppm Oxone + 55.5 ppm Chlorite, controls 1,008 ppm Oxone, 55.5 ppm Chlorite, 23.2 ppm ClO2, low level of detection 1.0E+01 CFU/mL.
Where [7] appears, read: 10 min exposure, Example 11 = 1,008 ppm Oxone + 55.5 ppm Chlorite, controls 1,008 ppm Oxone, 55.5 ppm Chlorite, 23.2 ppm ClO2.
The mark [8] stands for this setting: 10 min exposure, Example 11 = 1,008 ppm Oxone + 55.5 ppm Chlorite, controls 1,008 ppm Oxone, 55.5 ppm Chlorite, 23.2 ppm ClO2, low level of detection 1.0E+01 CFU/mL.

Where “and” joins values, the source holds several entries; their conditions need not be identical. Equal values may be shown once. Read-outs that look alike come from different tables or passages of the source.

Take `[O][Cl+][O-]` [ClO2 control, chlorine dioxide]: in experiment [1], the CFU/ml is listed as 1.00E + 01 CFU/ml; the “Δt (log difference test and control densities)” value is 5.1 log and 5.2 log. For the same compound, in experiment [2], the CFU/ml worked out at 1.00E + 01 CFU/ml; the “Δt (log difference test and control densities)” value is 5 log and 5.0 log and 5.1 log. Moreover, in experiment [3], the “Surviving Bioburden Counts (germinating spores, conidia/ml)” value (from here on “Surviving Bioburden Counts”) is listed as 0.00E + 00 conidia/ml and the “kill of A. fumigatus spores within 5 minutes” value is listed as 5 log. Also, in experiment [4], the CFU/ml came out at 1.00E + 01 CFU/ml; the “Δt (log difference test and control densities)” value is 5.1 log and 5.3 log.
For sodium chlorite [Chlorite control], the “Δt (log difference test and control densities)” value in experiment [1] (setting [5]) was 0.0 log; in experiment [1] (setting [7]) it was 0.1 log; in experiment [2] (setting [5]), −0.1 log; in experiment [2] (setting [7]), 0.0 log; in experiment [4] (setting [5]), −0.3 log; in experiment [4] (setting [7]) it was 0.2 log. Besides, the CFU/ml in experiment [1] (setting [6]) was 1.23E + 06 CFU/ml; in experiment [1] (setting [8]), 1.20E + 06 CFU/ml; in experiment [2] (setting [6]) it was 1.17E + 06 CFU/ml; in experiment [2] (setting [8]), 1.21E + 06 CFU/ml; in experiment [4] (setting [6]) it was 3.09E + 06 CFU/ml; in experiment [4] (setting [8]), 1.27E + 06 CFU/ml. Besides, the “Surviving Bioburden Counts” value is 4.25E + 05 conidia/ml in experiment [3] (5 min, 2 replicates average) and 6.25E + 05 conidia/ml in experiment [3] (15 min, 2 replicates average). Besides, the “reduction of the fungal bioburden” value in experiment [3] is reported as “ineffective in reducing the fungal bioburden”. Further, the “reduction of the bioburden within 15 minutes of treatment” value in experiment [3] is given as “not able to reduce the bioburden”.
Take “triple salt of potassium monopersulfate, potassium hydrogen sulfate and potassium sulfate [Oxone control]”: the “Δt (log difference test and control densities)” value in experiment [1] (setting [5]) is given as 0.0 log; in experiment [1] (setting [7]), 0.4 log; in experiment [2] (setting [5]) it was 0.0 log; in experiment [2] (setting [7]), 5.1 log. The CFU/ml was 1.52E + 06 CFU/ml in experiment [1] (setting [6]); 6.15E + 05 CFU/ml in experiment [1] (setting [8]); 9.50E + 05 CFU/ml in experiment [2] (setting [6]); 1.00E + 01 CFU/ml in experiment [2] (setting [8]); 2.95E + 03 CFU/ml and 2.14E + 06 CFU/ml in experiment [4]. Also, the “Surviving Bioburden Counts” value came out at 3.45E + 05 conidia/ml in experiment [3] (5 min, 2 replicates average) and 5.70E + 05 conidia/ml in experiment [3] (15 min, 2 replicates average). In experiment [3], the “reduction of the fungal bioburden” value is “ineffective in reducing the fungal bioburden”. Further, the “reduction of the bioburden within 15 minutes of treatment” value in experiment [3] is given as “not able to reduce the bioburden”.

The values are drawn from patent US20060016765A1, “Water treatment” (priority 2004, published 2006).
